Assay [1] deals with SARS-CoV-2. In words: In vivo antiviral activity against SARS CoV-2 gamma strain (hCoV-19/Japan/TY7-501/202) harbouring spike protein K417T mutant intranasally inoculated in BALB/c mouse assessed as reduction in lung intrapulmonary viral titer at 16 to 32 mg/kg, po immediately after viral infection and 12 hrs after viral infection measured after 24 hrs of post infection. The format is functional, Severe acute respiratory syndrome coronavirus 2. Particulars: dose 16-32 mg/kg.

Assay [2] concerns SARS-CoV-2. Nature of the assay: In vivo antiviral activity against SARS CoV-2 Gamma strain (hCoV-19/Japan/TY7-501/202) harbouring spike protein K417T mutant intranasally inoculated in BALB/c mouse assessed as reduction in lung intrapulmonary viral titer administered orally immediately after viral infection and 12 hrs after infection measured after 24 hrs of post infection. To be noted: Severe acute respiratory syndrome coronavirus 2, route po, DDE = dose-dependent effect. The format is functional, organism-based.

Consider `Cn1cnc(Cn2c(=O)[nH]/c(=N\c3cc4cn(C)nc4cc3Cl)n(Cc3cc(F)c(F)cc3F)c2=O)n1`, for which, in the assay with SARS-CoV-2 [1], the TCID50 was 1.8 log10/ml. The Activity entry in the assay with SARS-CoV-2 [2] is “Dde”.
